Drawing on US20080004302A1, “Novel Compounds” (ASTRAZENECA AB, priority 2006, published 2008), this text covers IC50 for 20 molecules.

Where a name gives a salt, the structure may show the parent alone.

One experiment deals with T1, FGFR1 IIIc (Homo sapiens, UniProt P11362).
T1 construct: host or cells: Cos-1
The experiment is described as follows: Cell based inhibition of transiently expressed FGFR1 IIIc phosphorylation via use of ECHO technology (Cos-1 cells). The settings on record: Cos-1 cells, phospho-FGFR1, ECHO dosing; upper bound of bin; read-out: IC50. As for the experimental part:
This assay is designed to detect inhibitors of transiently expressed FGFR1 phosphorylation by antibody staining of fixed cells detected using ArrayScan technology.
To undertake the assay, Cos-1 cells were harvested at 90-95% confluence for cell transfection. For each 96-well plate, 24μl Lipofectamine 2000 was added to 809 ul OptiMEM and incubated at room temperature for 5 minutes. […] Equal volumes of DNA and Lipofectamine 2000 were combined (DNA: Lipid=1:1.2 ratio) and incubated at room temperature for 20 minutes.
The harvested Cos-1 cells are counted using a coulter counter and diluted further with 1% FCS/DMEM to 2.5×10^5 cells/ml. For each 96-well, 8.33 ml cells were required. […] 70 μl of media was aspirated from the assay plate using the Quadra before the plate was transferred onto the ECHO 550. […] Compound transfer to the assay plate on the ECHO 550 was at concentration ranges 1)10 μM, 2) 3 μM, 3) 1 μM, 4) 0.3 μM, 5) 0.1 μM, 6) […].
The plates were gently tapped to mix compound in with the cell media and left to incubate at 37° C. with 5% CO2 for 1 hour.
Media was removed from the wells using vacuum aspiration; cells were fixed by adding 50 μl of 100% methanol to each well and incubated at room temperature for 20 minutes.
The plates were read on an Arrayscan (Cellomics).

Another experiment concerns the target FGFR1 kinase (Homo sapiens, UniProt P11362). The experiment is described as follows: Kinase assay (using Caliper technology). Type of experiment: biochemical. The settings on record: FGFR1 kinase, Caliper; upper bound of bin; read-out: IC50. The protocol:
To determine inhibition of FGFR activity, kinase assays were conducted using Caliper technology.
Kinase activity assays were performed in Greiner 384-well low volume plates, with a total reaction volume of 12ul per well. […] The substrate for each assay was a custom peptide with fluorescent tag (13 amino acids in length) the sequence of which was specific for FGFR1 kinase.
Compounds were serially diluted in 5% (v/v) DMSO, before being added to assay plates.
Assay plates were incubated at room temperature for 1.5 h, before the reaction was stopped with the addition of buffer [comprising: 100 mM HEPES—pH7.5, 0.033% Brij-35, 0.22% Caliper Coating Reagent #3, 88mM EDTA, 5% DMSO]. Stopped assay plates were then read using the Caliper LabChip® LC3000 (which uses microfludics to measure a shift in mobility between fluorescent labelled peptide and the FGFR1 kinase—phosphorylated form of this peptide).

The target in the next experiment is T2, human IGF1R (Homo sapiens, UniProt P08069).
T2 construct: expressed in transfected cells; host or cells: R+ cells (R- mouse fibroblasts transfected with human IGF1R)
The experiment is described as follows: Inhibition of insulin-like growth factor-1 receptor phosphorylation in R+ cells. The experiment is classed as cell-based. The settings on record: 30 nM IGF1, read-out: IGF cell class. The protocol: This immunofluorescence end point cell assay measures the ability of a test compound to reduce the measured levels of IGF1R phosphorylation after IGF1 stimulation in R^+ cells. […] were derived by transfection of R^− mouse fibroblast cells with human IGF1R.
(+5% CO2) incubator for 30 minutes.
Following the compound treatment, the R^+ cells were stimulated with a final concentration of 30 nM IGF1 (Gropep 1M001) for 20 minutes at 37° C. […] Plates were incubated for 1 hour at room temperature. […] Additionally, in-house antibodies raised against phospho […] were also used at a suitable titre determined for each batch.
The plates were incubated at room temperature for one hour. […] After addition of 100 μl/well PBS the plates were sealed with a black seal.
The Green Fluorescent phospho IGF1R -associated signal in each well was measured using an Acumen Explorer HTS Reader (TTP Labtech Ltd., Cambridge). […] The instrument is a laser-scanning fluorescence microplate cytometer, which samples the well at regular intervals and uses threshold algorithms to identify all fluorescent intensities above the solution background without the need to generate and analyse an image. These fluorescent objects can be quantified and provide a measure of the phospho IGF1R levels in cells. Fluorescence dose response data obtained with each compound was exported into a suitable software package (such as Origin) to perform curve fitting analysis. Phospho-IGF1R levels in response to compound treatment versus stimulated and unstimulated controls were expressed as an IC50 value.

T2 sequence (P08069 31-1367): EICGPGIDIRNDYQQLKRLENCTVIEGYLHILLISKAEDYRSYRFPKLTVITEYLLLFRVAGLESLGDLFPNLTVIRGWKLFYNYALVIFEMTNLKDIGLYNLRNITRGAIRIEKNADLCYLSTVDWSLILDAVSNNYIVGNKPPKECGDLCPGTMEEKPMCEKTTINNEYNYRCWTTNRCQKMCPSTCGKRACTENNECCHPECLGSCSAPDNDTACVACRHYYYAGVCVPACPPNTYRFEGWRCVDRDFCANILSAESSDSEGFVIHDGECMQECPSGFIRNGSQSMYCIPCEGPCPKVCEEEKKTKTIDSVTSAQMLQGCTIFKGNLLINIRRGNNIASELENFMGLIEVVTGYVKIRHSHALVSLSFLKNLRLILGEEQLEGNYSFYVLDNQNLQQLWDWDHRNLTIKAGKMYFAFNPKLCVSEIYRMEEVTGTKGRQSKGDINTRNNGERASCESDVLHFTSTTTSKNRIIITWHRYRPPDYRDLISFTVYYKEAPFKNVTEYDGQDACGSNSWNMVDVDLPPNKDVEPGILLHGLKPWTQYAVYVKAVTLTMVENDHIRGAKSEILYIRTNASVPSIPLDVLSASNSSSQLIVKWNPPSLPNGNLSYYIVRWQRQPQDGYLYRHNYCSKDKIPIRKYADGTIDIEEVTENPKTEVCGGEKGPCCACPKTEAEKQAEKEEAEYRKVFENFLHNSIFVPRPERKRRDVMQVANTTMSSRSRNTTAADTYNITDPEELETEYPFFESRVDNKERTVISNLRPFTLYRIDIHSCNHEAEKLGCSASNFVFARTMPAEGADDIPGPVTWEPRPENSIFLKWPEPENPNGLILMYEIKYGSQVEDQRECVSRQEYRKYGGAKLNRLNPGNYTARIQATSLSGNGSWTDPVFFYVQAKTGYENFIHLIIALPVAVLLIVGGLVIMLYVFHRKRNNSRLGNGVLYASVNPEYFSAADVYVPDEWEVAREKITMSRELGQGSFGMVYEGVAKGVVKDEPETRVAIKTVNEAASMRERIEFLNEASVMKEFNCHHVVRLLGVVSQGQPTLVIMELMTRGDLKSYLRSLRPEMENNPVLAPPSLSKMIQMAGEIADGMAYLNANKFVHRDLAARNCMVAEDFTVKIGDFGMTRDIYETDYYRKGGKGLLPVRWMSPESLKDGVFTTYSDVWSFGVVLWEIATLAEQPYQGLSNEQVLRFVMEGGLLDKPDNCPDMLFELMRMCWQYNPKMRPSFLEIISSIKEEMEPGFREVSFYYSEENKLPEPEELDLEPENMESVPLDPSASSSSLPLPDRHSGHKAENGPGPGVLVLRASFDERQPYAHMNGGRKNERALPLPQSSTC
Chain of FGFR1 kinase (P11362 22-822): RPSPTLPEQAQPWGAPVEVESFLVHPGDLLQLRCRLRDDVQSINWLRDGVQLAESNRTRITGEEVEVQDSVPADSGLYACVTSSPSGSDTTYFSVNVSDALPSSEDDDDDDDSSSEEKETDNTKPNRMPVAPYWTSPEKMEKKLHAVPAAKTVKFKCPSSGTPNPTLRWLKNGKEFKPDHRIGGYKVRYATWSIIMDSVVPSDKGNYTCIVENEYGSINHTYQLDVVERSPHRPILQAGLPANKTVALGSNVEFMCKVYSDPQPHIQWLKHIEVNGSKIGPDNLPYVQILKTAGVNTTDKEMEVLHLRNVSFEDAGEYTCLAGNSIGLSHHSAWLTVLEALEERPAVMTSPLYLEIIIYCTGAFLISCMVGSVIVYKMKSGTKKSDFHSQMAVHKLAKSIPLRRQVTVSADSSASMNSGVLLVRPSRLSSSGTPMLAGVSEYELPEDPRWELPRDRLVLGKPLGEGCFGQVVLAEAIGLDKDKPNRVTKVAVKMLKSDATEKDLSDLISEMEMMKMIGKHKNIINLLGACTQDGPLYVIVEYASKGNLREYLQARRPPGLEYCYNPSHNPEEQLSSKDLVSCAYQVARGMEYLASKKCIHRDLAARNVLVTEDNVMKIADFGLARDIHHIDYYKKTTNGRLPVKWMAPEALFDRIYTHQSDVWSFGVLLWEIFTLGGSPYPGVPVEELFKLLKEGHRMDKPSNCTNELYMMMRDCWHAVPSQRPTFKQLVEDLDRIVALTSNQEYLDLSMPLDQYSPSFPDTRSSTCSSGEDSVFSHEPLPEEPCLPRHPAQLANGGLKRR
T1 sequence (P11362 22-822): as above

Take `COc1ccnc(COc2cc(Nc3ccnc(NCc4cc(C)no4)n3)n[nH]2)c1` [Example 137, N′-[5-[(4-methoxypyridin-2-yl)methoxy]-1H-pyrazol-3-yl]-N-[(3-methyl-1,2-oxazol-5-yl)methyl]pyrimidine-2,4-diamine]: the IC50 on FGFR1 IIIc was below 30 µM; on FGFR1 kinase, below 1 µM.
For `COc1cncc(CCc2cc(Nc3ccnc(NCc4cc(CN(C)C)no4)n3)n[nH]2)c1` [Example 127, N-[[3-(dimethylaminomethyl)-1,2-oxazol-5-yl]methyl]-N′-[5-[2-(5-methoxypyridin-3-yl)ethyl]-1H-pyrazol-3-yl]pyrimidine-2,4-diamine], the IC50 is below 30 µM on FGFR1 IIIc and below 1 µM at FGFR1 kinase.
The matching figures for `COc1ncc(CCc2cc(Nc3ccnc(NCc4cc(C)no4)n3)n[nH]2)s1` [Example 130, N′-[5-[2-(2-methoxy-1,3-thiazol-5-yl)ethyl]-1H-pyrazol-3-yl]-N-[(3-methyl-1,2-oxazol-5-yl)methyl]pyrimidine-2,4-diamine]: below 10 µM and below 1 µM.
For `Cc1cc(CNc2nccc(Nc3cc(CCc4cccc(N)c4)[nH]n3)n2)on1` [Example 125, N′-[5-[2-(3-aminophenyl)ethyl]-1H-pyrazol-3-yl]-N-[(3-methyl-1,2-oxazol-5-yl)methyl]pyrimidine-2,4-diamine], the IC50 on FGFR1 IIIc was below 1 µM; on FGFR1 kinase, below 0.2 µM.
With `COCCCc1cc(Nc2ccnc(NCc3cc(C4CC4)no3)n2)n[nH]1` [Example 18, N-[(3-cyclopropyl-1,2-oxazol-5-yl)methyl]-N′-[5-(3-methoxypropyl)-2H-pyrazol-3-yl]pyrimidine-2,4-diamine], at human IGF1R, the IC50 fell in the range of 1 to 10 µM.
For the molecule `Cc1cc(CNc2nccc(Nc3cc(CCc4cccc(Oc5ncccn5)c4)[nH]n3)n2)on1` [Example 133, N-[(3-methyl-1,2-oxazol-5-yl)methyl]-N′-[5-[2-(3-pyrimidin-2-yloxyphenyl)ethyl]-1H-pyrazol-3-yl]pyrimidine-2,4-diamine hydrochloride], the IC50 was below 10 µM at FGFR1 IIIc and below 0.2 µM on FGFR1 kinase.
For the molecule `CC(C)Oc1cccc(CCc2cc(Nc3ccnc(NCc4cc(C(N)=O)no4)n3)n[nH]2)c1` [Example 140, 5-[[[4-[[5-[2-(3-propan-2-yloxyphenyl)ethyl]-1H-pyrazol-3-yl]amino]pyrimidin-2-yl]amino]methyl]-1,2-oxazole-3-carboxamide], the IC50 at FGFR1 IIIc is below 10 µM.
As to `COc1ccc(CCc2cc(Nc3ccnc(NCc4cc(C)no4)n3)n[nH]2)s1` [Example 129, N′-[5-[2-(5-methoxythiophen-2-yl)ethyl]-1H-pyrazol-3-yl]-N-[(3-methyl-1,2-oxazol-5-yl)methyl]pyrimidine-2,4-diamine], the IC50 on FGFR1 IIIc was below 1 µM; on FGFR1 kinase it was below 10 µM.
Consider `COc1cc(CCc2cc(Nc3ccnc(NCc4cc(C)no4)n3)n[nH]2)cc(OC)n1` [Example 124, N′-[5-[2-(2,6-dimethoxypyridin-4-yl)ethyl]-1H-pyrazol-3-yl]-N-[(3-methyl-1,2-oxazol-5-yl)methyl]pyrimidine-2,4-diamine], for which the IC50 at FGFR1 IIIc and on FGFR1 kinase was below 0.2 µM in each case.
For `Cc1cc(CNc2nccc(Nc3cc(CCc4cccc(OC(C)C)c4)[nH]n3)n2)on1` [Example 122, N-[(3-methyl-1,2-oxazol-5-yl)methyl]-N′-[5-[2-(3-propan-2-yloxyphenyl)ethyl]-1H-pyrazol-3-yl]pyrimidine-2,4-diamine], the IC50 on FGFR1 IIIc and on FGFR1 kinase was below 1 µM in each case.
Take `COc1cc(C)cc(COc2cc(Nc3ccnc(NCc4cc(C)no4)n3)n[nH]2)c1` [Example 131, N′-[5-[(3-methoxy-5-methyl-phenyl)methoxy]-1H-pyrazol-3-yl]-N-[(3-methyl-1,2-oxazol-5-yl)methyl]pyrimidine-2,4-diamine]: the IC50 at FGFR1 IIIc and on FGFR1 kinase was below 0.2 µM throughout.
Consider `CNC(=O)c1cc(CCc2cc(Nc3ccnc(NCc4cc(C)no4)n3)n[nH]2)cc(OC)c1` [Example 132, 3-Methoxy-N-methyl-5-[2-[5-[[2-[(3-methyl-1,2-oxazol-5-yl)methylamino]pyrimidin-4-yl]amino]-1H-pyrazol-3-yl]ethyl]benzamide], for which the IC50 at FGFR1 IIIc was below 1 µM; on FGFR1 kinase, below 0.2 µM.
As for `COCC(C)Oc1cc(Nc2ccnc(NCc3cc(C)no3)n2)n[nH]1` (stereo not shown) [Example 75, N′-[5-(1-methoxypropan-2-yloxy)-1H-pyrazol-3-yl]-N-[(3-methyl-1,2-oxazol-5-yl)methyl]pyrimidine-2,4-diamine], the IC50 was above 10 µM on human IGF1R and below 10 µM on FGFR1 kinase.
Consider `CNC(=O)c1cccc(CCc2cc(Nc3ccnc(NCc4cc(C)no4)n3)n[nH]2)c1` [Example 141, N-methyl-3-[2-[5-[[2-[(3-methyl-1,2-oxazol-5-yl)methylamino]pyrimidin-4-yl]amino]-1H-pyrazol-3-yl]ethyl]benzamide], for which the IC50 was below 1 µM at FGFR1 IIIc and below 0.2 µM at FGFR1 kinase.
The like results for `Cc1cc(CNc2nccc(Nc3cc(CCc4cccc(=O)[nH]4)[nH]n3)n2)on1` [Example 134, 6-[2-[5-[[2-[(3-methyl-1,2-oxazol-5-yl)methylamino]pyrimidin-4-yl]amino]-2H-pyrazol-3-yl]ethyl]-1H-pyridin-2-one dihydrochloride] were, in that order, below 30 µM and below 10 µM.
In the case of `CNC(=O)c1cc(C)cc(CCc2cc(Nc3ccnc(NCc4cc(C)no4)n3)n[nH]2)c1` [Example 142, N,3-dimethyl-5-[2-[5-[[2-[(3-methyl-1,2-oxazol-5-yl)methylamino]pyrimidin-4-yl]amino]-1H-pyrazol-3-yl]ethyl]benzamide], the values for the IC50 on FGFR1 IIIc and at FGFR1 kinase were below 10 µM and below 30 µM, respectively.
On to `CNC(=O)c1cc(OC)cc(CCc2cc(Nc3ccnc(NCc4cc(C)no4)n3)n[nH]2)n1` [Example 143, 4-Methoxy-N-methyl-6-[2-[5-[[2-[(3-methyl-1,2-oxazol-5-yl)methylamino]pyrimidin-4-yl]amino]-1H-pyrazol-3-yl]ethyl]pyridine-2-carboxamide], for which the IC50 was below 30 µM on FGFR1 IIIc and below 10 µM at FGFR1 kinase.
Take `COc1cc(CCc2cc(Nc3ccnc(NCc4cc(CN(C)C)no4)n3)n[nH]2)c(F)cn1` [Example 136, N-[[3-(dimethylaminomethyl)-1,2-oxazol-5-yl]methyl]-N′-[5-[2-(5-fluoro-2-methoxy-pyridin-4-yl)ethyl]-1H-pyrazol-3-yl]pyrimidine-2,4-diamine]: the IC50 on FGFR1 IIIc was below 10 µM; at FGFR1 kinase it was below 1 µM.
For `CCOc1ccc(COc2cc(Nc3ccnc(NCc4cc(C)no4)n3)n[nH]2)cc1OC` [Example 99, N′-[5-[(4-ethoxy-3-methoxy-phenyl)methoxy]-1H-pyrazol-3-yl]-N-[(3-methyl1,2-oxazol-5-yl)methyl]pyrimidine-2,4-diamine], the results for the IC50 at human IGF1R and on FGFR1 kinase were above 10 µM and below 10 µM, respectively.
In the case of `COc1cc(CCc2cc(Nc3ccnc(NCc4cc(C)no4)n3)n[nH]2)cc(NC(C)=O)c1` [Example 139, N-[3-methoxy-5-[2-[5-[[2-[(3-methyl-1,2-oxazol-5-yl)methylamino]pyrimidin-4-yl]amino]-2H-pyrazol-3-yl]ethyl]phenyl]acetamide], the IC50 on FGFR1 IIIc is below 30 µM.
